From patent EP1064002B9, “USE OF SPHINGOSIN-1-PHOSPHATE, SPHINGOSIN-1-PHOSPHATE DERIVATIVES AND/OR MIXTURES THEREOF FOR THE TREATMENT OF INFLAMMATORY DISEASES OF THE SKIN” (Dermapharm AG, priority 1998, dated 1999) come the findings set out here.

Common to all, as to type: cell-based
In series [1] the test system is Keratinozyten. In words: Keratinocyte differentiation, transglutaminase activity. From the text: Nachdem gezeigt worden war, daß SPP die Proliferation von Keratinozyten hemmt, ohne daß damit eine vermehrte Toxizität verbunden ist, wurde der Differenzierungsgrad der Zellen nach Einwirkung der Sphingolipid-Derivate untersucht.
Series [2] deals with Keratinozyten. In words: Keratinocyte proliferation in KGM, [3H]-thymidine incorporation into DNA. Particulars: 4-day treatment; for Proliferation von Keratinozyten ([^3H]-Thymidineinbau in die DNA): 1-10 µM. As for the experimental part: (§1) Die Proliferation von Keratinozyten wurde in Gegenwart von 1-10 µM von Sphingolipid-Derivaten untersucht. Nach 4-tägiger Behandlung mit verschiedenen Sphingolipiden wurde in der logarithmischen Wachstumsphase der Keratinozyten der [^3H]-Thymidineinbau in die DNA gemessen. […] Eine Proliferationshemmung tritt bereits bei einer Konzentration von 1 µM ein, 10 µM SPP reduzierten den Thymidineinbau um ca. 63,1 % (Abb. 1). […] Anhand des MTT-Tests wurde die Zellvitalität in Gegenwart von 1-25 µM SPP untersucht, bis 10 µM wirkten die Substanzen nicht toxisch. […] Dies zeigten mikroskopische Untersuchungen, der MTT-Test als auch durchflußzytometrische Untersuchungen zu Apoptose und Nekrose.
On the technique in general: Incorporation of labelled thymidine or its analogues reports DNA synthesis.

Series [3] concerns Keratinozyten. Nature of the series: Keratinocyte proliferation in keratinocyte basal medium (KBM) without supplements. The source says:
Die Versuche wurden auch in "keratinocyte basal medium" (KBM), ohne Supplemente), an kultivierten Keratinozyten durchgeführt. Damit konnte festgestellt werden, daß SPP bzw. […] DMS und C2C wirkten auch in diesem Medium toxisch.

Series [4] can be described thus: Fibroblast proliferation, non-stimulated cells in serum-free medium (DMEM without FKS). Particulars: human, fibroblasts, read-out: Konzentrationen mit ausgeprägter Toxizität an Fibroblasten. The source says:
(§2) Das Wachstumsverhalten menschlicher. Fibroblasten in Gegenwart der Testsubstanzen wurde an nicht stimulierten Zellen verfolgt, die in serumfreiem Medium (nach Dulbecco modifiziertes Earle-Medium (DMEM) ohne fetales Kälber-Serum (FKS)) kultiviert wurden.

In a further series the test system is Fibroblasten. The description is as above.
Text: as §2

A short description of series [5]: Keratinocyte viability/toxicity: MTT test, microscopy, flow cytometry for apoptosis and necrosis. Particulars: keratinocytes; tested at 1-25 µM; read-out: Zellvitalität (MTT-Test): nicht toxisch bis. How it is done:
as §1
(In general: Tetrazolium assays rely on reduction of a dye to a coloured formazan, in cell work by metabolically active cells.)

For `C=C1/C(=C\C=C2/CCC[C@]3(C)[C@@H]([C@H](C)CCCC(C)(C)O)CC[C@@H]23)C[C@@H](O)C[C@@H]1O` [Calcitriol], the “Differenzierung von Keratinozyten (Transglutaminase-Aktivität)” value with Keratinozyten [1] was “ebenfalls eine Differenzierung fördert”.
Regarding `CCCCCCCCCCCCC/C=C/[C@@H](O)[C@H](CO)NC(C)=O` [C2C, C2-Ceramid], the “Proliferation von Keratinozyten ([^3H]-Thymidineinbau in die DNA)” value (“Proliferation von Keratinozyten” below) in the series with Keratinozyten [2] is given as “hemmten zwar ebenso den Thymidineinbau”. Further, in the series on Keratinozyten [3], the “Toxizität an Keratinozyten” value was “toxisch”. Moreover, in series [4], the MCC is no less than 5 µM. Moreover, the “Proliferation von Fibroblasten” value in the series with Fibroblasten (low concentrations) is listed as “sehr geringe proliferationsfördernde Wirkung”.
As for `CCCCCCCCCCCCC/C=C/[C@@H](O)[C@@H](N)CO` [SPH, Sphingosin], in the series on Keratinozyten [2], the “Proliferation von Keratinozyten” value is “wachstumshemmende Wirkung” and the “antiproliferative effect compared with another substance” value is “schwächer ausgeprägt als bei SPP”. Moreover, the “mitogene Effekte an Keratinozyten” value in the series with Keratinozyten [3] was “keine mitogenen Effekte”. Moreover, the “Wirkstärke (Teilungsaktivität bei Fibroblasten) compared with SPP” value in the series with Fibroblasten is recorded as “niedriger als bei SPP”. The “toxische Effekte an Fibroblasten” value in the series on Fibroblasten (10 µM) is reported as “toxische Effekte”. Also, the “Proliferation von Fibroblasten” value with Fibroblasten (concentration-dependent) is “konzentrationsabhängig stark' stimuliert”. Moreover, in the series with Keratinozyten [1], the “Differenzierung von Keratinozyten (Transglutaminase-Aktivität)” value is reported as “die Differenzierung von Keratinozyten förderten” and the “Zunahme der Differenzierung von Keratinozyten compared with Calcitriol D3” value is “durchaus vergleichbar”.
`CCCCCCCCCCCCC/C=C/[C@@H](O)[C@@H](N)COP(=O)(O)O` [SPP, Sphingosin-1-Phosphat]: in the series with Keratinozyten [2], the “Proliferation von Keratinozyten” value is “stark proliferationshemmend” and the “antiproliferative effect compared with another substance” value was “ebenso potent wie Calcipotriol D3”. In the series with Keratinozyten [2] (Keratinocyte, 96 h, 10 µM, logarithmic growth phase, read-out: reduzierten den Thymidineinbau um), the inhibition at 10 µM was roughly 63.1%. Moreover, in the series on Keratinozyten [2] (Keratinocyte, 96 h, read-out: Konzentration, bei der eine Proliferationshemmung bereits eintritt), the minimal effective concentration is 1 µM. Also, the MNTC in series [5] is no more than 10 µM. Besides, in the series with Keratinozyten [3], the “mitogene Effekte an Keratinozyten” value was “keine mitogenen Effekte”. In addition, the “Proliferation von Fibroblasten” value in the series with Fibroblasten (1 µM) was “wahrnehmbare Proliferationszunahme”. Also, the fold induction at 10 µM with Fibroblasten (Fibroblast, 10 µM, read-out: höchste Aktivität (Proliferation von Fibroblasten)) is roughly 6.5. Moreover, the “Proliferation von Fibroblasten” value in the series with Fibroblasten (concentration-dependent) was “konzentrationsabhängig stark' stimuliert”. Moreover, in the series on Keratinozyten [1], the “Differenzierung von Keratinozyten (Transglutaminase-Aktivität)” value is on record as “die Differenzierung von Keratinozyten förderten” and the “Zunahme der Differenzierung von Keratinozyten compared with Calcitriol D3” value was “durchaus vergleichbar”.
`CCCCCCCCCCCCC/C=C/[C@@H](O)[C@H](CO)N(C)C` [DMS, Dimethylsphingosin]: the “Toxizität an Keratinozyten” value with Keratinozyten [3] was “toxisch”. For the same molecule, in series [4], the MCC is no less than 5 µM.
